For one molecule, solubility results are on record in US6610670B2, “Cyclodextrin-drospirenone inclusion complexes” (Schering Aktiengesellschaft, priority 2000, dated 2003).

This series is described as follows: Phase solubility diagram technique (PSD) in aqueous solutions at 20° C. The following applies: water, thermodynamic from solid, aqueous solution. It is filed as physicochemical. As to the method: The following data were obtained with the phase solubility diagram technique (PSD) In aqueous solutions at 20° C. The stability constants of the inclusion compound from β-CD and drospirenone are given.

`C[C@]12CCC(=O)C=C1[C@@H]1C[C@@H]1[C@H]1[C@@H]3[C@@H]4C[C@@H]4[C@@]4(CCC(=O)O4)[C@@]3(C)CC[C@@H]12` [Drospirenone, 6β,7β;15β,16β-dimethylene-3-oxo-17α-pregn-4-ene-21,17-carbolactone] showed a solubility of 41.4 µM. The solubility (value in parentheses) stood at 15.1 µg/mL.
